Biological target: T1, SpAMO (Scylla paramamosain, UniProt A0A3G2KVP6)
T1 sequence (A0A3G2KVP6 2-506): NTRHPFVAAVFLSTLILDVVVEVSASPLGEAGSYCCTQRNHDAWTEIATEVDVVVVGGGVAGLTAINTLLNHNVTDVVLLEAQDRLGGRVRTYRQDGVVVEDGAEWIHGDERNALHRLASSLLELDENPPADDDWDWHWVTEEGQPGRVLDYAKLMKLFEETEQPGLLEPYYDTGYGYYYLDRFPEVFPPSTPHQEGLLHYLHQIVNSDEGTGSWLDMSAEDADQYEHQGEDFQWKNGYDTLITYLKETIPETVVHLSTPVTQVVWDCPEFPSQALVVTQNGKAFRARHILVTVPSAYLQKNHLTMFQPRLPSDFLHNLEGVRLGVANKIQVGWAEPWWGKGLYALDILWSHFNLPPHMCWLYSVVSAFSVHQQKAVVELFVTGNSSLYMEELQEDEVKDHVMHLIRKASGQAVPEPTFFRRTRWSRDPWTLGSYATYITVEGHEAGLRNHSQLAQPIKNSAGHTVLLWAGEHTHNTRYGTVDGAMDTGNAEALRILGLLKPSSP
Test: luminol/horseradish peroxidase chemiluminescence of H2O2
Assay type: biochemical
Conditions: glycine buffer pH 8.0, 37 °C; 50 μL of 1.5 mmol/L substrate

Structure (SMILES): NCCc1ccc(O)c(O)c1 [dopamine]
- luminol/horseradish peroxidase chemiluminescence of H2O2: oxidative deamination of 5-HT and DA by SpAMO was significantly stronger
